Numbers after ± are expanded uncertainties.
Experiment: xn = mol fraction of the nth substance listed
Details: Liquid

CN(CCO)CCO [N-methyldiethanolamine] + O
Details	mass density [kg/m3]
352.84 K, 15989 kPa, x1 = 0.1302	1010.4 ± 0.4
352.84 K, 16976 kPa, x1 = 0.1302	1010.8 ± 0.4
352.84 K, 17977 kPa, x1 = 0.1302	1011.2 ± 0.4
352.84 K, 18979 kPa, x1 = 0.1302	1011.6 ± 0.4
352.84 K, 19995 kPa, x1 = 0.1302	1012 ± 0.4
352.85 K, 1004 kPa, x1 = 0.0369	983.9 ± 0.4
352.85 K, 2037 kPa, x1 = 0.0369	984.4 ± 0.4
352.85 K, 2962 kPa, x1 = 0.0369	984.8 ± 0.4
352.85 K, 4014 kPa, x1 = 0.0369	985.2 ± 0.4
352.85 K, 4994 kPa, x1 = 0.0369	985.6 ± 0.4
352.85 K, 6034 kPa, x1 = 0.0369	986.1 ± 0.4
352.85 K, 6999 kPa, x1 = 0.0369	986.5 ± 0.4
352.85 K, 8019 kPa, x1 = 0.0369	987 ± 0.4
352.85 K, 8987 kPa, x1 = 0.0369	987.3 ± 0.4
352.85 K, 9992 kPa, x1 = 0.0369	987.8 ± 0.4
352.85 K, 10987 kPa, x1 = 0.0369	988.2 ± 0.4
352.85 K, 11994 kPa, x1 = 0.0369	988.6 ± 0.4
352.85 K, 12978 kPa, x1 = 0.0369	989.1 ± 0.4
352.85 K, 13987 kPa, x1 = 0.0369	989.4 ± 0.4
352.85 K, 14998 kPa, x1 = 0.0369	989.9 ± 0.4
352.85 K, 15956 kPa, x1 = 0.0369	990.2 ± 0.4
352.85 K, 16987 kPa, x1 = 0.0369	990.7 ± 0.4
352.85 K, 17991 kPa, x1 = 0.0369	991.1 ± 0.4
352.85 K, 18986 kPa, x1 = 0.0369	991.5 ± 0.4
352.85 K, 19988 kPa, x1 = 0.0369	991.9 ± 0.4
352.88 K, 1037 kPa, x1 = 0.0893	998.6 ± 0.4
352.88 K, 2010 kPa, x1 = 0.0893	999 ± 0.4
352.88 K, 3005 kPa, x1 = 0.0893	999.5 ± 0.4
352.88 K, 4010 kPa, x1 = 0.0893	999.9 ± 0.4
352.88 K, 4999 kPa, x1 = 0.0893	1000.3 ± 0.4
352.88 K, 5993 kPa, x1 = 0.0893	1000.7 ± 0.4
352.88 K, 7000 kPa, x1 = 0.0893	1001.1 ± 0.4
352.88 K, 7998 kPa, x1 = 0.0893	1001.6 ± 0.4
352.88 K, 8982 kPa, x1 = 0.0893	1002 ± 0.4
352.88 K, 9977 kPa, x1 = 0.0893	1002.4 ± 0.4
352.88 K, 10995 kPa, x1 = 0.0893	1002.8 ± 0.4
352.88 K, 11987 kPa, x1 = 0.0893	1003.3 ± 0.4
352.88 K, 12999 kPa, x1 = 0.0893	1003.7 ± 0.4
352.88 K, 13990 kPa, x1 = 0.0893	1004.1 ± 0.4
352.88 K, 14969 kPa, x1 = 0.0893	1004.5 ± 0.4
352.88 K, 15990 kPa, x1 = 0.0893	1004.9 ± 0.4
352.88 K, 16991 kPa, x1 = 0.0893	1005.3 ± 0.4
352.88 K, 18009 kPa, x1 = 0.0893	1005.8 ± 0.4
352.88 K, 18994 kPa, x1 = 0.0893	1006.2 ± 0.4
352.88 K, 20015 kPa, x1 = 0.0893	1006.6 ± 0.4
362.71 K, 1012 kPa, x1 = 0.0369	977.3 ± 0.4
362.71 K, 2054 kPa, x1 = 0.0369	977.8 ± 0.4
362.71 K, 3004 kPa, x1 = 0.0369	978.2 ± 0.4
362.71 K, 3981 kPa, x1 = 0.0369	978.6 ± 0.4
362.71 K, 4997 kPa, x1 = 0.0369	979.1 ± 0.4
362.71 K, 6006 kPa, x1 = 0.0369	979.5 ± 0.4
362.71 K, 7005 kPa, x1 = 0.0369	979.9 ± 0.4
362.71 K, 7962 kPa, x1 = 0.0369	980.3 ± 0.4
362.71 K, 8999 kPa, x1 = 0.0369	980.8 ± 0.4
362.71 K, 9999 kPa, x1 = 0.0369	981.2 ± 0.4
362.71 K, 10997 kPa, x1 = 0.0369	981.6 ± 0.4
362.71 K, 11979 kPa, x1 = 0.0369	982 ± 0.4
362.71 K, 12988 kPa, x1 = 0.0369	982.5 ± 0.4
362.71 K, 13990 kPa, x1 = 0.0369	982.9 ± 0.4
362.71 K, 14982 kPa, x1 = 0.0369	983.4 ± 0.4
362.71 K, 15982 kPa, x1 = 0.0369	983.8 ± 0.4
362.71 K, 16992 kPa, x1 = 0.0369	984.2 ± 0.4
362.71 K, 17958 kPa, x1 = 0.0369	984.6 ± 0.4
362.71 K, 18984 kPa, x1 = 0.0369	985.1 ± 0.4
362.71 K, 19984 kPa, x1 = 0.0369	985.5 ± 0.4
362.72 K, 1043 kPa, x1 = 0.1302	995.9 ± 0.4
362.72 K, 2117 kPa, x1 = 0.1302	996.4 ± 0.4
362.72 K, 3008 kPa, x1 = 0.1302	996.8 ± 0.4
362.72 K, 3995 kPa, x1 = 0.1302	997.3 ± 0.4
362.72 K, 5002 kPa, x1 = 0.1302	997.8 ± 0.4
362.72 K, 5994 kPa, x1 = 0.1302	998.2 ± 0.4
362.72 K, 6994 kPa, x1 = 0.1302	998.6 ± 0.4
362.72 K, 8003 kPa, x1 = 0.1302	999.1 ± 0.4
362.72 K, 8988 kPa, x1 = 0.1302	999.6 ± 0.4
362.72 K, 9991 kPa, x1 = 0.1302	1000 ± 0.4
362.72 K, 11003 kPa, x1 = 0.1302	1000.4 ± 0.4
362.72 K, 12036 kPa, x1 = 0.1302	1000.9 ± 0.4
362.72 K, 13005 kPa, x1 = 0.1302	1001.3 ± 0.4
362.72 K, 13983 kPa, x1 = 0.1302	1001.7 ± 0.4
362.72 K, 14984 kPa, x1 = 0.1302	1002.2 ± 0.4
362.72 K, 15981 kPa, x1 = 0.1302	1002.6 ± 0.4
362.72 K, 16993 kPa, x1 = 0.1302	1003 ± 0.4
362.72 K, 17988 kPa, x1 = 0.1302	1003.5 ± 0.4
362.72 K, 18994 kPa, x1 = 0.1302	1003.9 ± 0.4
362.72 K, 19995 kPa, x1 = 0.1302	1004.4 ± 0.4
362.75 K, 993 kPa, x1 = 0.0893	990.9 ± 0.4
362.75 K, 2025 kPa, x1 = 0.0893	991.3 ± 0.4
362.75 K, 3013 kPa, x1 = 0.0893	991.8 ± 0.4
362.75 K, 3995 kPa, x1 = 0.0893	992.2 ± 0.4
362.75 K, 5018 kPa, x1 = 0.0893	992.7 ± 0.4
362.75 K, 6003 kPa, x1 = 0.0893	993.1 ± 0.4
362.75 K, 6988 kPa, x1 = 0.0893	993.6 ± 0.4
362.75 K, 8002 kPa, x1 = 0.0893	994 ± 0.4
362.75 K, 8996 kPa, x1 = 0.0893	994.4 ± 0.4
362.75 K, 10040 kPa, x1 = 0.0893	994.9 ± 0.4
362.75 K, 11000 kPa, x1 = 0.0893	995.3 ± 0.4
362.75 K, 11988 kPa, x1 = 0.0893	995.7 ± 0.4
362.75 K, 12992 kPa, x1 = 0.0893	996.1 ± 0.4
362.75 K, 13990 kPa, x1 = 0.0893	996.6 ± 0.4
362.75 K, 14990 kPa, x1 = 0.0893	997 ± 0.4
362.75 K, 15993 kPa, x1 = 0.0893	997.5 ± 0.4
362.75 K, 17004 kPa, x1 = 0.0893	997.9 ± 0.4
362.75 K, 17984 kPa, x1 = 0.0893	998.3 ± 0.4
362.75 K, 19022 kPa, x1 = 0.0893	998.7 ± 0.4
362.75 K, 19984 kPa, x1 = 0.0893	999.2 ± 0.4

Source: the NIST ThermoML archive (doi:10.1021/je700287u)
